Common to all, as to format: cell-based
In test [1] the target is T1, AaegRdl1-1 (Rdl, resistance to dieldrin GABA receptor) (Aedes aegypti, UniProt Q16896).
T1 construct: AaegRdl1-1 clone expressed in Xenopus oocytes
Description: two-electrode voltage clamp in Xenopus oocytes; potentiation of […] GABA current.

The target in test [2] is T1, AaegRdl1-1 (Rdl, resistance to dieldrin GABA receptor). In words: two-electrode voltage clamp in Xenopus oocytes; block of GABA current.
For test [3] the target is unchanged. Description: two-electrode voltage clamp in Xenopus oocytes; agonist-evoked chloride current.

The structures appear in SMILES notation.

T1 sequence (Q16896 entry or part of it): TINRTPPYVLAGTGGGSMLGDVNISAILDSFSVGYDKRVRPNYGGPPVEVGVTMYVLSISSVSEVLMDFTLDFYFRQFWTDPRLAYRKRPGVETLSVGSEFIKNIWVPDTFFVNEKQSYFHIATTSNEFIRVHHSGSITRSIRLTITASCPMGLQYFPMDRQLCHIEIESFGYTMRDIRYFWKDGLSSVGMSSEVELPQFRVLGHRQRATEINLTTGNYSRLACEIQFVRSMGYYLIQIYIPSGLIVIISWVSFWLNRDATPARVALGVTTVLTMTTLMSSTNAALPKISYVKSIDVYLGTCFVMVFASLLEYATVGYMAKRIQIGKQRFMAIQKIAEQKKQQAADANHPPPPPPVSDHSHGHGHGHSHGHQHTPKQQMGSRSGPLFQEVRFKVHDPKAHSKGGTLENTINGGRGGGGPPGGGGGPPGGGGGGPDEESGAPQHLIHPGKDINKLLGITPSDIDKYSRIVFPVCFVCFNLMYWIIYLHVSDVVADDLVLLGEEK

In general, EC50 refers to the concentration that produces a half-maximal response. Turning to `C=C(C)[C@H]1CC=C(C)CC1` [limonene], the EC50 in test [1] was determined as 43.3 ± 4.6 µM.
For the compound `N#Cc1nn(-c2c(Cl)cc(C(F)(F)F)cc2Cl)c(N)c1[S+]([O-])C(F)(F)F` (stereo not drawn) [fipronil], the “two-electrode voltage clamp in Xenopus oocytes; block of GABA current” value in test [2] is recorded as “IGABA was blocked by the application of a positive control, fipronil, as expected (Supplementary Figure S2)”.
As to `NCCCC(=O)O` [GABA], the EC50 in test [3] was found to be 204 ± 18.3 µM.

The values are drawn from PMC12787074, “Involvement of Multiple Ion Channels and Receptors in Mediating the Insecticidal and Repellent Actions of Limonene” (International Journal of Molecular Sciences, 2025).
